Patent publication US20230172867A1, “A METHOD FOR TREATING CANCER WITH AN ORAL DOSAGE FORM OF AN FGFR4 INHIBITOR” (Eisai R&D Management Co., Ltd., priority 2020, published 2023)
Read-outs that look alike come from different tables or passages of the source.

Experiment: Pharmacokinetic measurements of H3B-6527 capsules in patients (trial NCT02834780), plasma LC-MS/MS
Format: in vivo, human
Details: human, plasma, oral; for AUC: read-out: AUC, geometric mean (CV%); for Cmax: read-out: Cmax, geometric mean (CV%)
From the text: A description of the first in human clinical trial for H3B-6527 can be found at the ClinicalTrials.gov by searching for trial identifier NCT02834780. In summary, the trial included a study population having the following characteristics: Adult patients ≥18 years old with advanced HCC or ICC; Progression after at least one prior therapy; ECOG score of 0 or 1; Well compensated liver function; FGF19-positive (dose expansion phase only); Excluded if patients have significant active infections [except hepatitis B virus (HBV) and hepatitis C virus (HCV)], gastric or esophageal varices, or previous FGF19-FGFR4 targeted therapy.
Blood samples are collected at the planned time points from each patient and centrifuged. The plasma portion of each sample is then transferred to a K2EDTA tube, which is then shipped to a bioanalytical lab for concentration measurement using LC-MS/MS. The concentration data are then analyzed using Phoenix® WinNonlin software to obtain PK parameters. The obtained PK parameters are further summarized using analytical software.
Drug Administration and Dosage for Dose Escalation: H3B-6527 was administered orally QD or BID on a 21-day cycle. […] Patients in dose escalation phase were treated regardless of FGF19 status. Response determined by RECIST 1.1/modified RECIST every 6 weeks
Further collection and collation of the PK results of the trial of Example 2 at a later point in time are reflected in the following Table 5:
The results of further analysis of the PK data of the trial of Example 2 with the actual date and time of the dose administration and PK sampling after QC, an update from the results of a preliminary analysis with the nominal (i.e. planned) dosing/PK sampling date/time presented in Example 3, are reflected in the following Table 6. In this example the number of patients from which each PK parameter was calculated is shown, rather than the total number of patients receiving a particular dose and regimen as in Table 5.

[1] = 600 mg, 600 mg QD, fed, Day 8, Table 6, actual times after QC
[2] = 700 mg, 700 mg BID, fed, Day 1, Table 6, actual times after QC
[3] = 700 mg, 700 mg BID, fed, Day 8, Table 6, actual times after QC
[4] = 1000 mg, 1000 mg QD, fasted, Day 1, Table 6, actual times after QC
[5] = 1000 mg, 1000 mg QD, fasted, Day 8, Table 6, actual times after QC
[6] = 1000 mg, 1000 mg QD, fed, Day 1, Table 6, actual times after QC
[7] = 1000 mg, 1000 mg QD, fed, Day 8, Table 6, actual times after QC
[8] = 1400 mg, 1400 mg QD, fasted, Day 1, Table 6, actual times after QC
[9] = 1400 mg, 1400 mg QD, fasted, Day 8, Table 6, actual times after QC
[10] = 1400 mg, 1400 mg QD, fed, Day 1, Table 6, actual times after QC
[11] = 1400 mg, 1400 mg QD, fed, Day 8, Table 6, actual times after QC
[12] = 2000 mg, 2000 mg QD, fed, Day 1, Table 6, actual times after QC
[13] = 2000 mg, 2000 mg QD, fed, Day 8, Table 6, actual times after QC

C=CC(=O)Nc1cc(N2CCN(CC)CC2)ccc1Nc1cc(N(C)C(=O)Nc2c(Cl)c(OC)cc(OC)c2Cl)ncn1 [H3B-6527, N-(2-((6-(3-(2,6-dichloro-3,5-dimethoxyphenyl)-1-methylureido)pyrimidin-4-yl)amino)-5-(4-ethylpiperazin-1-yl)phenyl)acrylamide]
Tmax (600 mg, 600 mg QD, fed, Day 8, Table 5, nominal times, read-out: Tmax, median (min-max)): 4.52 h | AUC [1]: 501 ng·h/mL | Cmax [1]: 99.6 ng/mL | half-life (600 mg, 600 mg QD, fed, Day 8, Table 6, actual times after QC, read-out: Half-life, geometric mean (CV%) (converted)): 5.88 h | Tmax (600 mg, 600 mg QD, fed, Day 8, Table 6, actual times after QC, read-out: Tmax, median (min-max)): 4.52 h | Cmax (700 mg, 700 mg BID, fed, Day 1, Table 5, nominal times): 163 ng/mL | half-life (700 mg, 700 mg BID, fed, Day 1, Table 5, nominal times, read-out: Half-life, geometric mean (CV%) (converted)): 2.1 h | Tmax (700 mg, 700 mg BID, fed, Day 1, Table 5, nominal times, read-out: Tmax, median (min-max)): 2.02 h | AUC [2]: 591 ng·h/mL | Cmax [2]: 163 ng/mL | half-life (700 mg, 700 mg BID, fed, Day 1, Table 6, actual times after QC, read-out: Half-life, geometric mean (CV%) (converted)): 2.13 h | Tmax (700 mg, 700 mg BID, fed, Day 1, Table 6, actual times after QC, read-out: Tmax, median (min-max)): 2.02 h | Cmax (700 mg, 700 mg BID, fed, Day 8, Table 5, nominal times): 167 ng/mL | half-life (700 mg, 700 mg BID, fed, Day 8, Table 5, nominal times, read-out: Half-life, geometric mean (CV%) (converted)): 2.2 h | Tmax (700 mg, 700 mg BID, fed, Day 8, Table 5, nominal times, read-out: Tmax, median (min-max)): 4.12 h | AUC [3]: 639 ng·h/mL | Cmax [3]: 167 ng/mL | half-life (700 mg, 700 mg BID, fed, Day 8, Table 6, actual times after QC, read-out: Half-life, geometric mean (CV%) (converted)): 2.18 h | Tmax (700 mg, 700 mg BID, fed, Day 8, Table 6, actual times after QC, read-out: Tmax, median (min-max)): 4.12 h | Cmax (1000 mg, 1000 mg QD, fasted, Day 1, Table 5, nominal times): 146 ng/mL | half-life (1000 mg, 1000 mg QD, fasted, Day 1, Table 5, nominal times, read-out: Half-life, geometric mean (CV%) (converted)): 4.5 h | Tmax (1000 mg, 1000 mg QD, fasted, Day 1, Table 5, nominal times, read-out: Tmax, median (min-max)): 2.01 h | AUC [4]: 854 ng·h/mL | Cmax [4]: 225 ng/mL | half-life (1000 mg, 1000 mg QD, fasted, Day 1, Table 6, actual times after QC, read-out: Half-life, geometric mean (CV%) (converted)): 4.48 h | Tmax (1000 mg, 1000 mg QD, fasted, Day 1, Table 6, actual times after QC, read-out: Tmax, median (min-max)): 2.02 h | Cmax (1000 mg, 1000 mg QD, fasted, Day 8, Table 5, nominal times): 197 ng/mL | half-life (1000 mg, 1000 mg QD, fasted, Day 8, Table 5, nominal times, read-out: Half-life, geometric mean (CV%) (converted)): 4.5 h | Tmax (1000 mg, 1000 mg QD, fasted, Day 8, Table 5, nominal times, read-out: Tmax, median (min-max)): 2.02 h | AUC [5]: 839 ng·h/mL | Cmax [5]: 187 ng/mL | half-life (1000 mg, 1000 mg QD, fasted, Day 8, Table 6, actual times after QC, read-out: Half-life, geometric mean (CV%) (converted)): 4.84 h | Tmax (1000 mg, 1000 mg QD, fasted, Day 8, Table 6, actual times after QC, read-out: Tmax, median (min-max)): 2 h | Cmax (1000 mg, 1000 mg QD, fed, Day 1, Table 5, nominal times): 188 ng/mL | half-life (1000 mg, 1000 mg QD, fed, Day 1, Table 5, nominal times, read-out: Half-life, geometric mean (CV%) (converted)): 4 h | Tmax (1000 mg, 1000 mg QD, fed, Day 1, Table 5, nominal times, read-out: Tmax, median (min-max)): 5.05 h | AUC [6]: 1120 ng·h/mL | Cmax [6]: 182 ng/mL | half-life (1000 mg, 1000 mg QD, fed, Day 1, Table 6, actual times after QC, read-out: Half-life, geometric mean (CV%) (converted)): 3.94 h | Tmax (1000 mg, 1000 mg QD, fed, Day 1, Table 6, actual times after QC, read-out: Tmax, median (min-max)): 6 h | Cmax (1000 mg, 1000 mg QD, fed, Day 8, Table 5, nominal times): 199 ng/mL | half-life (1000 mg, 1000 mg QD, fed, Day 8, Table 5, nominal times, read-out: Half-life, geometric mean (CV%) (converted)): 4.2 h | Tmax (1000 mg, 1000 mg QD, fed, Day 8, Table 5, nominal times, read-out: Tmax, median (min-max)): 4.08 h | AUC [7]: 796 ng·h/mL | Cmax [7]: 177 ng/mL | half-life (1000 mg, 1000 mg QD, fed, Day 8, Table 6, actual times after QC, read-out: Half-life, geometric mean (CV%) (converted)): 6.16 h | Tmax (1000 mg, 1000 mg QD, fed, Day 8, Table 6, actual times after QC, read-out: Tmax, median (min-max)): 2 h | half-life (1000 mg, following administration of 1000 mg (fasted), read-out: mean terminal half-life): 4 to 5 h | Cmax (1400 mg, 1400 mg QD, fasted, Day 1, Table 5, nominal times): 136 ng/mL | half-life (1400 mg, 1400 mg QD, fasted, Day 1, Table 5, nominal times, read-out: Half-life, geometric mean (CV%) (converted)): 5.3 h | Tmax (1400 mg, 1400 mg QD, fasted, Day 1, Table 5, nominal times, read-out: Tmax, median (min-max)): 1 h | AUC [8]: 400 ng·h/mL | Cmax [8]: 136 ng/mL | half-life (1400 mg, 1400 mg QD, fasted, Day 1, Table 6, actual times after QC, read-out: Half-life, geometric mean (CV%) (converted)): 6.13 h | Tmax (1400 mg, 1400 mg QD, fasted, Day 1, Table 6, actual times after QC, read-out: Tmax, median (min-max)): 1 h | Cmax (1400 mg, 1400 mg QD, fasted, Day 8, Table 5, nominal times): 362 ng/mL | half-life (1400 mg, 1400 mg QD, fasted, Day 8, Table 5, nominal times, read-out: Half-life, geometric mean (CV%) (converted)): 4.9 h | Tmax (1400 mg, 1400 mg QD, fasted, Day 8, Table 5, nominal times, read-out: Tmax, median (min-max)): 2.1 h | AUC [9]: 1260 ng·h/mL | Cmax [9]: 362 ng/mL | half-life (1400 mg, 1400 mg QD, fasted, Day 8, Table 6, actual times after QC, read-out: Half-life, geometric mean (CV%) (converted)): 4.56 h | Tmax (1400 mg, 1400 mg QD, fasted, Day 8, Table 6, actual times after QC, read-out: Tmax, median (min-max)): 2.1 h | Cmax (1400 mg, 1400 mg QD, fed, Day 1, Table 5, nominal times): 904 ng/mL | half-life (1400 mg, 1400 mg QD, fed, Day 1, Table 5, nominal times, read-out: Half-life, geometric mean (CV%) (converted)): 4.1 h | Tmax (1400 mg, 1400 mg QD, fed, Day 1, Table 5, nominal times, read-out: Tmax, median (min-max)): 5 h | AUC [10]: 5670 ng·h/mL | Cmax [10]: 904 ng/mL | half-life (1400 mg, 1400 mg QD, fed, Day 1, Table 6, actual times after QC, read-out: Half-life, geometric mean (CV%) (converted)): 4.13 h | Tmax (1400 mg, 1400 mg QD, fed, Day 1, Table 6, actual times after QC, read-out: Tmax, median (min-max)): 5 h | Cmax (1400 mg, 1400 mg QD, fed, Day 8, Table 5, nominal times): 827 ng/mL | half-life (1400 mg, 1400 mg QD, fed, Day 8, Table 5, nominal times, read-out: Half-life, geometric mean (CV%) (converted)): 4.4 h | Tmax (1400 mg, 1400 mg QD, fed, Day 8, Table 5, nominal times, read-out: Tmax, median (min-max)): 5.86 h | AUC [11]: 5450 ng·h/mL | Cmax [11]: 827 ng/mL | half-life (1400 mg, 1400 mg QD, fed, Day 8, Table 6, actual times after QC, read-out: Half-life, geometric mean (CV%) (converted)): 4.75 h | Tmax (1400 mg, 1400 mg QD, fed, Day 8, Table 6, actual times after QC, read-out: Tmax, median (min-max)): 5.86 h | Cmax (2000 mg, 2000 mg QD, fed, Day 1, Table 5, nominal times): 525 ng/mL | half-life (2000 mg, 2000 mg QD, fed, Day 1, Table 5, nominal times, read-out: Half-life, geometric mean (CV%) (converted)): 5.5 h | Tmax (2000 mg, 2000 mg QD, fed, Day 1, Table 5, nominal times, read-out: Tmax, median (min-max)): 2 h | AUC [12]: 2950 ng·h/mL | Cmax [12]: 540 ng/mL | half-life (2000 mg, 2000 mg QD, fed, Day 1, Table 6, actual times after QC, read-out: Half-life, geometric mean (CV%) (converted)): 4.14 h | Tmax (2000 mg, 2000 mg QD, fed, Day 1, Table 6, actual times after QC, read-out: Tmax, median (min-max)): 2.1 h | Cmax (2000 mg, 2000 mg QD, fed, Day 8, Table 5, nominal times): 451 ng/mL | half-life (2000 mg, 2000 mg QD, fed, Day 8, Table 5, nominal times, read-out: Half-life, geometric mean (CV%) (converted)): 5.7 h | Tmax (2000 mg, 2000 mg QD, fed, Day 8, Table 5, nominal times, read-out: Tmax, median (min-max)): 2.5 h | AUC [13]: 2580 ng·h/mL | Cmax [13]: 502 ng/mL | half-life (2000 mg, 2000 mg QD, fed, Day 8, Table 6, actual times after QC, read-out: Half-life, geometric mean (CV%) (converted)): 4.98 h | Tmax (2000 mg, 2000 mg QD, fed, Day 8, Table 6, actual times after QC, read-out: Tmax, median (min-max)): 4 h | Tmax (fasted, read-out: median plasma tmax): 1 to 3 h
